How the values were obtained:
[1] = system: blackgrass; experiment: Test Example 5: herbicidal effect by foliage application, plastic box (Table 20, symbol J); assay type: in vivo, blackgrass (Alopecurus myosuroides); settings: foliage application; for J: blackgrass, herbicidal effect: AAH 320 g/ha, three weeks after application; for herbicidal effect on J: blackgrass: 320 g/ha, evaluated three weeks after application
Method in brief: (§1)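 Plants sown in sterilized diluvial soil and grown 14 days in a greenhouse at 25° C to 30° C, then sprayed on the foliage with the compound's emulsion diluted in water to a predetermined herbicide amount. Injury to weeds and crops scored three weeks after application on a visual rating scale.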

[2] = system: persian speedwell; experiment: Test Example 5: herbicidal effect by foliage application, plastic box (Table 20, symbol R); assay type: in vivo, Persian speedwell (Veronica persica); settings: foliage application; for R: persian speedwell, herbicidal effect: AAH 320 g/ha, three weeks after application; for herbicidal effect on R: persian speedwell: 320 g/ha, evaluated three weeks after application
Method in brief: as §1

[3] = system: chickweed; experiment: Test Example 5: herbicidal effect by foliage application, plastic box (Table 20, symbol P); assay type: in vivo, common chickweed (Stellaria media); settings: foliage application; for P: chickweed, herbicidal effect: AAH 320 g/ha, three weeks after application; for herbicidal effect on P: chickweed: 320 g/ha, evaluated three weeks after application
Method in brief: as §1

[4] = system: oval-leafed pondweed; experiment: Test Example 1: herbicidal activity, application before weed generation under submerged conditions (Table 16, symbol C); assay type: in vivo, oval-leafed pondweed (Monochoria vaginalis); settings: 320 g/ha applied herbicide
Method in brief: (§2)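 Alluvial soil was flooded to 4 cm depth, weed seeds were sown mixed and 2.5-leaf rice seedlings were transplanted. On sowing day, the compound's emulsion, diluted in water to a set dose, was applied to the water surface. Plants grew at 25–30 °C and were scored 0–5 after three weeks.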

[5] = system: green foxtail; experiment: Test Example 5: herbicidal effect by foliage application, plastic box (Table 20, symbol G); assay type: in vivo, green foxtail (Setaria viridis); settings: foliage application; for G: green foxtail, herbicidal effect: AAH 320 g/ha, three weeks after application; for herbicidal effect on G: green foxtail: 320 g/ha, evaluated three weeks after application
Method in brief: as §1

[6] = system: velvetleaf; experiment: Test Example 5: herbicidal effect by foliage application, plastic box (Table 20, symbol M); assay type: in vivo, velvetleaf (Abutilon theophrasti); settings: foliage application; for M: velvetleaf, herbicidal effect: AAH 320 g/ha, three weeks after application; for herbicidal effect on M: velvetleaf: 320 g/ha, evaluated three weeks after application
Method in brief: as §1

[7] = system: southern crabgrass; experiment: Test Example 5: herbicidal effect by foliage application, plastic box (Table 20, symbol F); assay type: in vivo, southern crabgrass (Digitaria ciliaris); settings: foliage application; for F: southern crabgrass, herbicidal effect: AAH 320 g/ha, three weeks after application; for herbicidal effect on F: southern crabgrass: 320 g/ha, evaluated three weeks after application
Method in brief: as §1

[8] = system: barnyard grass; experiment: Test Example 5: herbicidal effect by foliage application, plastic box (Table 20, symbol H); assay type: in vivo, barnyard grass (Echinochloa crus-galli); settings: foliage application; for H: barnyard grass, herbicidal effect: AAH 320 g/ha, three weeks after application; for herbicidal effect on H: barnyard grass: 320 g/ha, evaluated three weeks after application
Method in brief: as §1

[9] = system: redroot pigweed; experiment: Test Example 5: herbicidal effect by foliage application, plastic box (Table 20, symbol N); assay type: in vivo, redroot pigweed (Amaranthus retroflexus); settings: foliage application; for N: redroot pigweed, herbicidal effect: AAH 320 g/ha, three weeks after application; for herbicidal effect on N: redroot pigweed: 320 g/ha, evaluated three weeks after application
Method in brief: as §1

[10] = system: wild oat; experiment: Test Example 5: herbicidal effect by foliage application, plastic box (Table 20, symbol I); assay type: in vivo, wild oat (Avena fatua); settings: foliage application; for I: wild oat, herbicidal effect: AAH 320 g/ha, three weeks after application; for herbicidal effect on I: wild oat: 320 g/ha, evaluated three weeks after application
Method in brief: as §1

[11] = system: Japanese bulrush; experiment: Test Example 1: herbicidal activity, application before weed generation under submerged conditions (Table 16, symbol B); assay type: in vivo, Japanese bulrush (Schoenoplectus juncoides); settings: 320 g/ha applied herbicide
Method in brief: as §2

[12] = system: windgrass; experiment: Test Example 5: herbicidal effect by foliage application, plastic box (Table 20, symbol L); assay type: in vivo, windgrass (Apera spica-venti); settings: foliage application; for L: windgrass, herbicidal effect: AAH 320 g/ha, three weeks after application; for herbicidal effect on L: windgrass: 320 g/ha, evaluated three weeks after application
Method in brief: as §1

[13] = system: lambsquarters; experiment: Test Example 5: herbicidal effect by foliage application, plastic box (Table 20, symbol O); assay type: in vivo, lambsquarters (Chenopodium album); settings: foliage application; for O: lambsquarters, herbicidal effect: AAH 320 g/ha, three weeks after application; for herbicidal effect on O: lambsquarters: 320 g/ha, evaluated three weeks after application
Method in brief: as §1

[14] = system: late watergrass; experiment: Test Example 1: herbicidal activity, application before weed generation under submerged conditions (Table 16, symbol A); assay type: in vivo, late watergrass (Echinochloa oryzicola); settings: 320 g/ha applied herbicide
Method in brief: as §2

[15] = system: rice flat sedge; experiment: Test Example 3: herbicidal effect by foliage application, Wagner pot (Table 18, symbol E); assay type: in vivo, rice flat sedge (Cyperus iria); settings: 320 g/ha
Method in brief: (§3)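 Plants were sown in alluvial soil held under 0.1–0.5 cm standing water and grown 14 days in a greenhouse at 25–30 °C. An emulsifiable formulation, water-diluted to the set dose, was then sprayed onto the foliage, and effects were scored three weeks later using previously defined criteria.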

[16] = system: barnyard grass; experiment: Test Example 3: herbicidal effect by foliage application, Wagner pot (Table 18, symbol H); assay type: in vivo, barnyard grass (Echinochloa crus-galli); settings: 320 g/ha
Method in brief: as §3

[17] = system: Chinese sprangletop; experiment: Test Example 3: herbicidal effect by foliage application, Wagner pot (Table 18, symbol D); assay type: in vivo, chinese sprangletop (Leptochloa chinensis); settings: 320 g/ha
Method in brief: as §3

[18] = system: Italian ryegrass; experiment: Test Example 5: herbicidal effect by foliage application, plastic box (Table 20, symbol K); assay type: in vivo, Italian ryegrass (Lolium multiflorum); settings: foliage application; for K: Italian ryegrass, herbicidal effect: AAH 320 g/ha, three weeks after application; for herbicidal effect on K: Italian ryegrass: 320 g/ha, evaluated three weeks after application
Method in brief: as §1

Structure (SMILES)	J: blackgrass, herbicidal effect [1]	R: persian speedwell, herbicidal effect [2]	P: chickweed, herbicidal effect [3]	Herbicidal effect on C: oval-leafed pondweed (grade 0-5) [4]	G: green foxtail, herbicidal effect [5]	M: velvetleaf, herbicidal effect [6]	F: southern crabgrass, herbicidal effect [7]	H: barnyard grass, herbicidal effect [8]	N: redroot pigweed, herbicidal effect [9]	I: wild oat, herbicidal effect [10]	Herbicidal effect on B: Japanese bulrush (grade 0-5) [11]	L: windgrass, herbicidal effect [12]	O: lambsquarters, herbicidal effect [13]	Herbicidal effect on A: late watergrass (grade 0-5) [14]	herbicidal effect on E (rice flat sedge), rating 0-5 [15]	herbicidal effect on H (barnyard grass), rating 0-5 [16]	herbicidal effect on D (Chinese sprangletop), rating 0-5 [17]	K: Italian ryegrass, herbicidal effect [18]	herbicidal effect on J: blackgrass [1]	herbicidal effect on R: persian speedwell [2]	further results
COc1cn(C)nc1-c1sc2ccccc2c1-c1c(O)c(C)nn(C)c1=O [1-105]	0 (Herbicidal rate of 5% or less (almost no effect))	4 (Herbicidal rate of 70% or more and less than 90%)	5 (Herbicidal rate of 90% or more (almost completely withered))	2 (Herbicidal rate of 20% or more and less than 40%)	3 (Herbicidal rate of 40% or more and less than 70%)	3 (Herbicidal rate of 40% or more and less than 70%)	3 (Herbicidal rate of 40% or more and less than 70%)	1 (Herbicidal rate of 5% or more and less than 20%)	5 (Herbicidal rate of 90% or more (almost completely withered))	3 (Herbicidal rate of 40% or more and less than 70%)	3 (Herbicidal rate of 40% or more and less than 70%)	4 (Herbicidal rate of 70% or more and less than 90%)	4 (Herbicidal rate of 70% or more and less than 90%)	3 (Herbicidal rate of 40% or more and less than 70%)	4 (Herbicidal rate of 70% or more and less than 90%)	4 (Herbicidal rate of 70% or more and less than 90%)	3 (Herbicidal rate of 40% or more and less than 70%)	0 (Herbicidal rate of 5% or less (almost no effect))	–	–	–
COc1cccc(Cl)c1-c1sc2ccccc2c1-c1c(O)c(C)nn(C)c1=O [1-159]	0 (Herbicidal rate of 5% or less (almost no effect))	5 (Herbicidal rate of 90% or more (almost completely withered))	5 (Herbicidal rate of 90% or more (almost completely withered))	0 (Herbicidal rate of 5% or less (almost no effect))	0 (Herbicidal rate of 5% or less (almost no effect))	0 (Herbicidal rate of 5% or less (almost no effect))	0 (Herbicidal rate of 5% or less (almost no effect))	0 (Herbicidal rate of 5% or less (almost no effect))	0 (Herbicidal rate of 5% or less (almost no effect))	0 (Herbicidal rate of 5% or less (almost no effect))	0 (Herbicidal rate of 5% or less (almost no effect))	0 (Herbicidal rate of 5% or less (almost no effect))	0 (Herbicidal rate of 5% or less (almost no effect))	2 (Herbicidal rate of 20% or more and less than 40%)	0 (Herbicidal rate of 5% or less (almost no effect))	2 (Herbicidal rate of 20% or more and less than 40%)	0 (Herbicidal rate of 5% or less (almost no effect))	0 (Herbicidal rate of 5% or less (almost no effect))	–	–	–
COCCOCOc1c(C)nn(C)c(=O)c1-c1c(-c2ccc(OCC(=O)OC)cc2)sc2ccc(F)cc12 [2-071]	–	–	–	0 (Herbicidal rate of 5% or less (almost no effect))	–	–	–	–	–	–	0 (Herbicidal rate of 5% or less (almost no effect))	–	–	3 (Herbicidal rate of 40% or more and less than 70%)	2 (Herbicidal rate of 20% or more and less than 40%)	2 (Herbicidal rate of 20% or more and less than 40%)	3 (Herbicidal rate of 40% or more and less than 70%)	–	0 (Herbicidal rate of 5% or less (almost no effect))	0 (Herbicidal rate of 5% or less (almost no effect))	herbicidal effect on P: chickweed [3]: 3 (Herbicidal rate of 40% or more and less than 70%); herbicidal effect on G: green foxtail [5]: 0 (Herbicidal rate of 5% or less (almost no effect)); herbicidal effect on M: velvetleaf [6]: 0 (Herbicidal rate of 5% or less (almost no effect)); herbicidal effect on F: southern crabgrass [7]: 0 (Herbicidal rate of 5% or less (almost no effect)); herbicidal effect on H: barnyard grass [8]: 0 (Herbicidal rate of 5% or less (almost no effect)); herbicidal effect on N: redroot pigweed [9]: 4 (Herbicidal rate of 70% or more and less than 90%); herbicidal effect on I: wild oat [10]: 0 (Herbicidal rate of 5% or less (almost no effect)); herbicidal effect on L: windgrass [12]: 0 (Herbicidal rate of 5% or less (almost no effect)); herbicidal effect on O: lambsquarters [13]: 3 (Herbicidal rate of 40% or more and less than 70%); herbicidal effect on K: Italian ryegrass [18]: 0 (Herbicidal rate of 5% or less (almost no effect))
CCCC(=O)Oc1c(C)nn(C)c(=O)c1-c1c(-c2ccc(Oc3ccccc3)cc2)sc2ccc(F)cc12 [2-073]	–	–	–	0 (Herbicidal rate of 5% or less (almost no effect))	–	–	–	–	–	–	0 (Herbicidal rate of 5% or less (almost no effect))	–	–	3 (Herbicidal rate of 40% or more and less than 70%)	3 (Herbicidal rate of 40% or more and less than 70%)	4 (Herbicidal rate of 70% or more and less than 90%)	3 (Herbicidal rate of 40% or more and less than 70%)	–	0 (Herbicidal rate of 5% or less (almost no effect))	4 (Herbicidal rate of 70% or more and less than 90%)	herbicidal effect on P: chickweed [3]: 5 (Herbicidal rate of 90% or more (almost completely withered)); herbicidal effect on G: green foxtail [5]: 2 (Herbicidal rate of 20% or more and less than 40%); herbicidal effect on M: velvetleaf [6]: 3 (Herbicidal rate of 40% or more and less than 70%); herbicidal effect on F: southern crabgrass [7]: 0 (Herbicidal rate of 5% or less (almost no effect)); herbicidal effect on H: barnyard grass [8]: 1 (Herbicidal rate of 5% or more and less than 20%); herbicidal effect on N: redroot pigweed [9]: 3 (Herbicidal rate of 40% or more and less than 70%); herbicidal effect on I: wild oat [10]: 0 (Herbicidal rate of 5% or less (almost no effect)); herbicidal effect on L: windgrass [12]: 0 (Herbicidal rate of 5% or less (almost no effect)); herbicidal effect on O: lambsquarters [13]: 3 (Herbicidal rate of 40% or more and less than 70%); herbicidal effect on K: Italian ryegrass [18]: 0 (Herbicidal rate of 5% or less (almost no effect))

From patent publication US20230085307A1, “PYRIDAZINONE COMPOUND AND HERBICIDE” (NISSAN CHEMICAL CORPORATION, priority 2019, published 2023)
